Data on 9 molecules can be found in patent US10744136B2, “Sulfonamide derivatives as JAK inhibitors” (Avista Pharma Solutions, Inc., priority 2018, dated 2020).

The test concerns the target T1, JAK1 (Homo sapiens, UniProt P23458).
T1 construct: purchased Thermo Fisher Scientific
Description: Z'-LYTE JAK1 kinase screen (Thermo Fisher Scientific). It counts as biochemical. The settings on record: 1% DMSO, ATP at Km apparent; for % Inhibition 1000 nm: test compound 1000 nm (so in the source). The method, then:
The example compounds were screened for Jak1 activity at Thermo Fisher Scientific, using their Z′-Lyte™ protocol, as described below. Selectivity screening against other kinases can be performed following similar procedures. Z′-LYTE Assay Conditions: The Test Compounds are screened in 1% DMSO (final) in the well. Three screening concentrations (10, 100, and 1000 nM) of test compounds were used. Peptide/Kinase Mixtures: All Peptide/Kinase Mixtures are diluted to a 2× working concentration in the appropriate Kinase Buffer (For JAK1, the 2×JAK1/Tyr 06 mixture is prepared in 50 mM HEPES pH 6.5, 0.01% BRIJ-35, 10 mM MgCl2, 1 mM EGTA, 0.02% NaN3. The final 10 μL Kinase Reaction consists of 21.2-91.5 ng JAK1 and 2 μM Tyr 06 in 50 mM HEPES pH 7.0, 0.01% BRIJ-35, 10 mM MgCl2, 1 mM EGTA, 0.01% NaN3. After the 1 hour Kinase Reaction incubation, 5 μL of a 1:128 dilution of Development Reagent A is added). ATP Solution: All ATP Solutions are diluted to a 4× working concentration in Kinase Buffer (50 mM HEPES pH 7.5, 0.01% BRIJ-35, 10 mM MgCl2, 1 mM EGTA). ATP: Km apparent is previously determined using a Z′-LYTE assay. 10× Novel PKC Lipid Mix: 2 mg/ml Phosphatidyl Serine, 0.2 mg/ml DAG in 20 mM HEPES, pH 7.4, 0.3% CHAPS. For 5 mL 10× Novel PKC Lipid Mix: • 1. Add 10 mgs Phosphatidyl Serine (Avanti Polar Lipids Part #8400032C or 840039C) and 1 mg DAG (Avanti Polar Lipids Part #800811C) to a glass tube. • 2. Remove the chloroform from lipid mixture by evaporating to a clear, thin film under a stream of nitrogen. Continuous rotation of the tube, at an angle to ensure maximum surface area of the lipid solution, will promote the thinnest film. • 3. Add 5 mLs resuspension buffer, 20 mM HEPES, 0.3% CHAPS, pH 7.4, to the dried lipid mix • 4. Heat gently to 50-60° C. for 1-2 minutes and vortex in short intervals until the lipids are dissolved to a clear or slightly hazy solution. The lipids are typically in solution after 2-3 heat/vortex cycles. • 5. Cool to room temperature, aliquot into single use volumes and store at −20° C. Assay Protocol Bar-coded Corning, low volume NBS, black 384-well plate (Corning Cat. #4514) • 1. 100 nL—100× Test Compound in 100% DMSO • 2. 2.4 μL—Kinase buffer • 3. 5 μL—2× Peptide/Kinase Mixture • 4. 2.5 μL—4×ATP Solution • 5. 30-second plate shake • 6. 60-minute Kinase Reaction incubation at room temperature • 7. 5 μL—Development Reagent Solution • 8. 30-second plate shake • 9. 60-minute Development Reaction incubation at room temperature • 10. Read on fluorescence plate reader and analyze the data.

T1 sequence (P23458 whole entry): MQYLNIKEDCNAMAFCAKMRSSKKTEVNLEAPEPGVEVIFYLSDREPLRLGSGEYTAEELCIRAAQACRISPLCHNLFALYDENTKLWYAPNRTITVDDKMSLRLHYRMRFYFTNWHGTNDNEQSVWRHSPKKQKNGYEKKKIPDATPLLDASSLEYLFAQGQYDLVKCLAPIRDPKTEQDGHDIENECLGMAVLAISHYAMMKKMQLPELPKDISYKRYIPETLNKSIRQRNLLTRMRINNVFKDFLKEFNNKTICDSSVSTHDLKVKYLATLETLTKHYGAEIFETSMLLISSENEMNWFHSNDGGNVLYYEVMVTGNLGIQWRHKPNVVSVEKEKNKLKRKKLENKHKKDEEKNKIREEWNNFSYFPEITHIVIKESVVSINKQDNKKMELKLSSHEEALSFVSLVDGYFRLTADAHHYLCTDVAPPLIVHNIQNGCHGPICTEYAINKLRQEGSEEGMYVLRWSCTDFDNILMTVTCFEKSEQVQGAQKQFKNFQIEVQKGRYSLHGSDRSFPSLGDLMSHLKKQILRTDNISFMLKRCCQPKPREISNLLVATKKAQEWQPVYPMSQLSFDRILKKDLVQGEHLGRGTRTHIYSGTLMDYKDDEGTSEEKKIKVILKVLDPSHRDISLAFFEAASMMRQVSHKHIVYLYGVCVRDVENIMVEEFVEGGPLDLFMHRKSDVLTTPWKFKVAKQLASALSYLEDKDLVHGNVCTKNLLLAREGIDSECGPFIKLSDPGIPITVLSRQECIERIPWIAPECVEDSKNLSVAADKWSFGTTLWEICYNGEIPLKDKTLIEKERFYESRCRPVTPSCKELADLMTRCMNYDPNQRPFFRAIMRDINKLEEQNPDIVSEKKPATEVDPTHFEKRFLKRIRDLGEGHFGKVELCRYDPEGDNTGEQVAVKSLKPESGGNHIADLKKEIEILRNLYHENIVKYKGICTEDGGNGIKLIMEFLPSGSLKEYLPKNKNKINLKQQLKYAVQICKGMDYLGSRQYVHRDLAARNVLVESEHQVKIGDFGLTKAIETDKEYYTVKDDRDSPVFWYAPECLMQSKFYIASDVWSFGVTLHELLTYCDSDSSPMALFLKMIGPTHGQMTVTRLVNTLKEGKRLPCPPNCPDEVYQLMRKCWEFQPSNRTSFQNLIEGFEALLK

Turning to `CN(c1ncnc2[nH]ccc12)C1CC2(CC(NS(=O)(=O)c3ccc(C(F)(F)F)cc3)C2)C1` (centres unmarked) [Compound 14, N-[2-[methyl(7H-pyrrolo[2,3-d]pyrimidin-4-yl)amino]spiro[3.3]heptan-6-yl]-4-(trifluoromethyl)benzenesulfonamide], the “% Inhibition 1000 nm” value was 92%. The inhibition at 0.01 µM (test compound 10 nM) stood at 1%. Also, the inhibition at 0.1 µM (test compound 100 nM) is 56%.

Turning to `CC(C)CNS(=O)(=O)C1CC2(CC(N(C)c3ncnc4[nH]ccc34)C2)C1` (centres unmarked) [Compound 7, N-isobutyl-6-[methyl(7H-pyrrolo[2,3-d]pyrimidin-4-yl)amino]spiro[3.3]heptane-2-sulfonamide], the “% Inhibition 1000 nm” value stood at 97%. In addition, for the setting “test compound 10 nM”, the inhibition at 0.01 µM was determined as 42%. Also, the inhibition at 0.1 µM (test compound 100 nM) is 88%.

For the molecule `CN(c1ncnc2[nH]ccc12)C1CC2(CC(NS(=O)(=O)CCC(F)(F)F)C2)C1` (centres unmarked) [Compound 21, 3,3,3-trifluoro-N-[2-[methyl(7H-pyrrolo[2,3-d]pyrimidin-4-yl)amino]spiro[3.3]heptan-6-yl]propane-1-sulfonamide], the “% Inhibition 1000 nm” value is 98%. In addition, the inhibition at 0.01 µM (test compound 10 nM) came to 46%. Further, the inhibition at 0.1 µM (test compound 100 nM) amounted to 85%.

`CCCNS(=O)(=O)C1CC2(CC(N(C)c3ncnc4[nH]ccc34)C2)C1` (centres unmarked) [Compound 3, 6-[methyl(7H-pyrrolo[2,3-d]pyrimidin-4-yl)amino]-N-propyl-spiro[3.3]heptane-2-sulfonamide]: the “% Inhibition 1000 nm” value stood at 98%. Besides, the inhibition at 0.01 µM (test compound 10 nM) was determined as 57%. Besides, for the setting “test compound 100 nM”, the inhibition at 0.1 µM came to 92%.

`CN(c1ncnc2[nH]ccc12)C1CC2(CC(CNS(C)(=O)=O)C2)C1` (centres unmarked) [Compound 22, N-((6-(methyl(7H-pyrrolo[2,3-d]pyrimidin-4-yl)amino)spiro[3.3]heptan-2-yl)methyl)methanesulfonamide]: the inhibition at 0.01 µM (test compound 10 nM) is 76%. For the same molecule, the inhibition at 0.1 µM (test compound 100 nM) was 96%.

On to `CNS(=O)(=O)C1CC2(CC(N(C)c3ncnc4[nH]ccc34)C2)C1` (single isomer, unassigned; enantiomer b) [Compound 27, (Enantiomer B)-N-methyl-6-[methyl(7H-pyrrolo[2,3-d]pyrimidin-4-yl)amino]spiro[3.3]heptane-2-sulfonamide], for which the “% Inhibition 1000 nm” value turned out to be 89%. In addition, the “% Inhibition 10 nM” value (test compound 10 nM, 0.01 µM) is recorded as 12%. The “% Inhibition 100 nM” value (test compound 100 nM, 0.1 µM) turned out to be 52%.

Consider `CN(c1ncnc2[nH]ccc12)C1CC2(C1)CC(S(=O)(=O)NC1CCCC1)C2` (centres unmarked) [Compound 10, N-cyclopentyl-6-[methyl(7H-pyrrolo[2,3-d]pyrimidin-4-yl)amino]spiro[3.3]heptane-2-sulfonamide], for which the “% Inhibition 1000 nm” value turned out to be 97%. In addition, the inhibition at 0.01 µM (test compound 10 nM) is 52%. Moreover, the inhibition at 0.1 µM (test compound 100 nM) was determined as 84%.

Regarding `CN(c1ncnc2[nH]ccc12)C1CC2(CC(NS(=O)(=O)c3ccc(Cl)cc3)C2)C1` (centres unmarked) [Compound 13, 4-chloro-N-[2-[methyl(7H-pyrrolo[2,3-d]pyrimidin-4-yl)amino]spiro[3.3]heptan-6-yl]benzenesulfonamide], the “% Inhibition 1000 nm” value is listed as 95%. Further, where the note is “test compound 10 nM”, the inhibition at 0.01 µM came out at 27%. Further, where the note is “test compound 100 nM”, the inhibition at 0.1 µM stood at 77%.

As for `CC(C)CS(=O)(=O)NC1CC2(C1)CC(N(C)c1ncnc3[nH]ccc13)C2` (centres unmarked) [Compound 19, 2-methyl-N-[2-[methyl(7H-pyrrolo[2,3-d]pyrimidin-4-yl)amino]spiro[3.3]heptan-6-yl]propane-1-sulfonamide], the “% Inhibition 1000 nm” value is 94%. The inhibition at 0.01 µM (test compound 10 nM) is 27%. The inhibition at 0.1 µM (test compound 100 nM) is 73%.
